Assay results published in US9333193B2, “Compositions and methods for treating tuberculosis” (priority 2010, dated 2016).
In brackets after ≈: the same amount, converted by molar mass. Like-named read-outs stand apart in the source and are kept apart here.

Key:
[1] = test system: Mycobacterium tuberculosis; assay: microbe, parasite or virus in culture; conditions: agar proportion
[2] = test system: Mycobacterium smegmatis mc2155; assay: Anti-mycobacterial activity of nitazoxanides, MIC in Middlebrook 7H9; format: cell-based; conditions: Middlebrook 7H9, 37° C.; for MIC: Mycolicibacterium smegmatis, MC2155, read-out: Minimal Inhibitory Concentration, M. smegmatis
Description: (§1) (1) Strains: Mycobacterium smegmatis mc2155, Mycobacterium chelonae EOP-1, Mycobacterium marinum ATCC 927, Mycobacterium avium Va14(T), and Mycobacterium abscessus AAy-P-1).
(§2) (2) Medium: Middlebrook 7H9 containing 0.5% (vol/vol) glycerol and 10% (vol/vol) oleic acid-albumin.
(§3) (3) Incubation Temperature: 37° C., except M. marinum 30° C.
(§4) (4) Nitazoxanides: Precipitates were present in wells of nitazoxanides with high concentrations (250-31 μg/mL) except for 162080, 162088, 16b2026, and 16b2031.
(5) Decolorization: Almost all the yellow nitazoxanides, namely 16b1090, 16b1092 and 16b1093, 16b1094, 16b2023, 16b2025, and 16b2026 were decolorized by M. smegmatis strain mc2155. None of the other mycobacterial strains decolorized the compounds. Note that the compound numbers are also referred to herein with the prefix VPC.
(§5) The strains used were Mycobacterium smegmatis mc2155, Mycobacterium chelonae EOP-1, Mycobacterium marinum ATCC 927, Mycobacterium avium Va14(T), and Mycobacterium abscessus AAy-P-1. The medium use was Middlebrook 7H9 containing 0.5% (vol/vol) glycerol and 10% (vol/vol) oleic acid-albumin. Incubation Temperature was 37° C., except for M. marinum at 30° C. For nitazoxanides, precipitates were present in wells of nitazoxanides with high concentrations (250-31 μg/mL) except for 162080, 162088, 16b2026, and 16b2031.
Decolorization: Almost all the yellow nitazoxanides, namely 16b1090, 16b1092 and 16b1093, 16b1094, 16b2023, 16b2025, and 16b2026 were decolorized by M. smegmatis strain mc2155. None of the other mycobacterial strains decolorized the compounds.

[3] = test system: Mycobacterium avium Va14(T); assay: as above; format: cell-based; conditions: Middlebrook 7H9, 37° C.; for MIC: Mycobacterium avium, read-out: Minimal Inhibitory Concentration, M. avium
Description: as §1, §2, §3, §4, §5

[4] = test system: Mycobacterium chelonae EOP-1; assay: as above; format: cell-based; conditions: Middlebrook 7H9, 37° C.; for MIC: read-out: Minimal Inhibitory Concentration, M. chelonae
Description: as §1, §2, §3, §4, §5

[5] = test system: Mycobacterium marinum ATCC 927; assay: as above; format: cell-based; conditions: Middlebrook 7H9, 30° C.; for MIC: Mycobacterium marinum, ATCC927, read-out: Minimal Inhibitory Concentration, M. marinum
Description: as §1, §2, §3, §4, §5

[6] = test system: Mycobacterium abscessus AAy-P-1; assay: as above; format: cell-based; conditions: Middlebrook 7H9, 37° C.; for MIC: Mycobacteroides abscessus, AAYP1, read-out: Minimal Inhibitory Concentration, M. abscessus
Description: as §1, §2, §3, §4, §5

TB organisms = conditions: cited from earlier work
M. tuberculosis = assay: microbe, parasite or virus in culture; format: cell-based, Mycobacterium tuberculosis; design: % Inhibit growth, H37Rv / % Inhibit growth, Susceptible / % Inhibit growth, MDR / % Inhibit growth, XDR / inhibition: dose or concentration left out as unconfirmed; conditions: for inhibition: Mycobacterium tuberculosis; for % Inhibit growth, MDR: MDR strain; for % Inhibit growth, MDR / % Inhibit growth, Susceptible / % Inhibit growth, XDR / % Inhibit growth, H37Rv / Potency against M. tuberculosis in words (Table 1): agar proportion method; for % Inhibit growth, Susceptible: Susceptible strain; for % Inhibit growth, XDR: XDR strain; for % Inhibit growth, H37Rv: strain H37Rv
[7] = test system: Mycobacterium tuberculosis; conditions: agar proportion
[8] = H37RV, isolate H37Rv (Reference)
[9] = read-out: % Inhibit growth, MDR
[10] = read-out: % Inhibit growth, XDR

Structure (SMILES)	MIC [1, 8] [µg/mL]	MIC ([1]; isolate 234 (MDR-TB)) [µg/mL]	MIC ([1]; isolate 283 (susceptible)) [µg/mL]	MIC ([1]; isolate 565 (MDR-TB)) [µg/mL]	MIC ([1]; isolate 694 (MDR-TB)) [µg/mL]	MIC ([1]; isolate 750 (MDR-TB)) [µg/mL]	MIC ([1]; isolate 823 (XDR-TB)) [µg/mL]	MIC ([1]; isolate 971 (MDR-TB)) [µg/mL]	MIC [2] [µg/mL]	MIC [3] [µg/mL]	MIC [4] [µg/mL]	MIC [5] [µg/mL]	MIC [6] [µg/mL]	inhibition (M. tuberculosis; [9]) [%]	inhibition (M. tuberculosis; [10]) [%]	further results
NNC(=O)c1ccncc1 [Isoniazid, reference compound]	≤ 125	16000 (≈ 117 mM)	≤ 125	8000 (≈ 58.3 mM)	16000 (≈ 117 mM)	8000 (≈ 58.3 mM)	8000 (≈ 58.3 mM)	4000 (≈ 29.2 mM)	–	–	–	–	–	–	–	–
CC(=O)Oc1ccccc1C(=O)Nc1ncc([N+](=O)[O-])s1 [Nitazoxanide, 2-(acetyloxy)-N-(5-nitro-2-thiazolyl)benzamide, reference compound]	–	–	–	–	–	–	–	–	> 250	250 (≈ 0.814 mM)	63 (≈ 0.205 mM)	31 (≈ 0.101 mM)	63 (≈ 0.205 mM)	–	–	Action against TB in presence of proteins found in serum (TB organisms): inhibited by proteins that would be found in serum
CO[C@H]1/C=C/O[C@@]2(C)Oc3c(C)c(O)c4c(O)c(c(/C=N/N5CCN(C)CC5)c(O)c4c3C2=O)NC(=O)/C(C)=C\C=C\[C@H](C)[C@H](O)[C@@H](C)[C@@H](O)[C@@H](C)[C@H](OC(C)=O)[C@@H]1C [Rifampin, reference compound]	≤ 125	16000 (≈ 19.4 mM)	≤ 125	≥ 32000	≥ 32000	≥ 32000	≥ 32000	≥ 32000	–	–	–	–	–	–	–	–
O=C(Nc1ncc([N+](=O)[O-])s1)c1ccc(Cl)c(C(F)(F)F)c1 [VPC16a1060, 4-Chloro-N-(5-nitrothiazol-2-yl)-3-(trifluoromethyl)benzamide]	–	–	–	–	–	–	–	–	–	–	–	–	–	98	90	–
CCCCCC(=O)Nc1sc([N+](=O)[O-])cc1[N+](=O)[O-] [VPC16b1089]	–	–	–	–	–	–	–	–	–	–	–	–	–	–	–	% Inhibit growth, MDR (M. tuberculosis): 0%; % Inhibit growth, Susceptible (M. tuberculosis): 0%; % Inhibit growth, XDR (M. tuberculosis): 0%; % Inhibit growth, H37Rv (M. tuberculosis): 0%; Minimal Inhibitory Concentration, M. smegmatis [2]: 125 µg/mL; Minimal Inhibitory Concentration, M. avium [3]: 63 µg/mL; Minimal Inhibitory Concentration, M. chelonae [4]: 31 µg/mL; Minimal Inhibitory Concentration, M. marinum [5]: 16 µg/mL; Minimal Inhibitory Concentration, M. abscessus [6]: 4. μg/mL
O=C(Nc1sc([N+](=O)[O-])cc1[N+](=O)[O-])c1ccccc1 [VPC16b1090]	4000 (≈ 13.6 mM)	4000 (≈ 13.6 mM)	4000 (≈ 13.6 mM)	4000 (≈ 13.6 mM)	2000 (≈ 6.82 mM)	4000 (≈ 13.6 mM)	4000 (≈ 13.6 mM)	2000 (≈ 6.82 mM)	16 (≈ 0.0546 mM)	8 (≈ 0.0273 mM)	1 (≈ 0.00341 mM)	4 (≈ 0.0136 mM)	0.5 (≈ 0.0017 mM)	100	100	Potency against M. tuberculosis in words (Table 1) (M. tuberculosis): most potent
O=C(Nc1sc([N+](=O)[O-])cc1[N+](=O)[O-])c1cccc(C(F)(F)F)c1 [VPC16b1092]	–	–	–	–	–	–	–	–	–	–	–	–	–	–	–	% Inhibit growth, MDR (M. tuberculosis): 100%; % Inhibit growth, Susceptible (M. tuberculosis): 100%; % Inhibit growth, XDR (M. tuberculosis): 100%; Potency against M. tuberculosis in words (Table 1) (M. tuberculosis): most potent; % Inhibit growth, H37Rv (M. tuberculosis): 100%; MIC ([7]; isolate 234 (MDR-TB)): 2000 µg/mL (≈ 5.54 mM); MIC ([7]; isolate 283 (susceptible)): 2000 µg/mL (≈ 5.54 mM); MIC ([7]; isolate 565 (MDR-TB)): 2000 µg/mL (≈ 5.54 mM); MIC ([7]; isolate 694 (MDR-TB)): 1000 µg/mL (≈ 2.77 mM); MIC ([7]; isolate 750 (MDR-TB)): 2000 µg/mL (≈ 5.54 mM); MIC ([7]; isolate 823 (XDR-TB)): 2000 µg/mL (≈ 5.54 mM); MIC ([7]; isolate 971 (MDR-TB)): 2000 µg/mL (≈ 5.54 mM); MIC ([7]; isolate H37Rv (Reference)): 2000 µg/mL (≈ 5.54 mM); Minimal Inhibitory Concentration, M. smegmatis [2]: 31 µg/mL; Minimal Inhibitory Concentration, M. avium [3]: 8 µg/mL; Minimal Inhibitory Concentration, M. chelonae [4]: 4 µg/mL; Minimal Inhibitory Concentration, M. marinum [5]: 4 µg/mL; Minimal Inhibitory Concentration, M. abscessus [6]: 0.25 µg/mL
O=C(Nc1sc([N+](=O)[O-])cc1[N+](=O)[O-])c1cccs1 [VPC16b1093, N-(3,5-Dinitrothiophen-2-yl)thiophene-2-carboxamide]	–	–	–	–	–	–	–	–	125 (≈ 0.418 mM)	31 (≈ 0.104 mM)	2 (≈ 0.00668 mM)	31 (≈ 0.104 mM)	1 (≈ 0.00334 mM)	100	100	–
